Measured values as given in patent US8507464B2, “Phosphoramidate alkylator prodrugs” (Threshold Pharmaceuticals, Inc., priority 2005, dated 2013).
Like-named read-outs stand apart in the source and are kept apart here.

Tests used:
NCI-H460 cells [1] = assay: Antiproliferation assay - oxygen dependence; assay type: cell-based, human
Text: . […] The calculated IC50 values (μM) are tabulated in Table Y1 (H460 cells) or Table Y2 (HT29 cells) below.

[2] = test system: mouse (MLM) liver microsomal proteins; assay type: in vitro ADME; details: Table 2B
[3] = Plasma stability (Table 2B); details: 30 min
NCI-H460 cells [4] = assay: Antiproliferation assay (Alamar Blue), anoxia vs air
H460 cell line = assay: Anti-proliferation assay, hypoxia vs normoxia (Table 1A); details: for IC50: Homo sapiens; for HCR P: ratio of IC50 in normoxia and hypoxia
[5] = test system: H460 lung carcinoma spheroids; assay: Spheroid model, clonogenic survival; details: Homo sapiens, NCI-H460, 2 h, read-out: IC90 H460 Spheroid 10% O2
[6] = test system: H460 cells exposed as monolayers; assay: Clonogenic survival of monolayer cells (Example 35); details: Homo sapiens, NCI-H460, 2 h
NCI-H460 cells [7] = assay: Clonogenic assay - oxygen dependence; details: Homo sapiens
HT29 cells = assay: Antiproliferation assay (Alamar Blue), anoxia vs air; details: Homo sapiens, HT-29, 2 h
MES-SA cells = assay: as above; details: Homo sapiens, 2 h
human H460 cells = assay: Clonogenic survival assay, hypoxia vs normoxia (Table 1A); details: for IC90: Homo sapiens
[8] = assay type: physicochemical; details: glassy carbon, Ag/AgCl reference
[9] = Homo sapiens, NCI-H460, read-out: IC50 in H460 cells, 0.1% O2
[10] = Homo sapiens, NCI-H460, read-out: IC50 in H460 cells, 0.6% O2
[11] = Homo sapiens, NCI-H460, read-out: IC50 in H460 cells, 1% O2
[12] = Homo sapiens, NCI-H460, read-out: IC50 in H460 cells, 10% O2
[13] = Homo sapiens, NCI-H460, read-out: IC50 in H460 cells, Air
[14] = Homo sapiens, NCI-H460, read-out: IC50 in H460 cells, N2
[15] = Homo sapiens, NCI-H460, 2 h, read-out: IC50 H460 Air, air, 2 h exposure
[16] = Homo sapiens, NCI-H460, 2 h, read-out: IC50 H460 Anoxia, anoxia, 2 h exposure
[17] = NCI-H460, read-out: Hypoxia P (proliferation IC50)
[18] = NCI-H460, read-out: Normoxia P (proliferation IC50)
[19] = read-out: IC90 H460 Monolayer N2
[20] = Homo sapiens, NCI-H460; read-out: IC50 in H460 cells, Air
[21] = Homo sapiens, NCI-H460; read-out: IC50 in H460 cells, N2
[22] = NCI-H460, read-out: IC90 H460 0.6% O2
[23] = NCI-H460, read-out: IC90 H460 Air
[24] = NCI-H460, read-out: IC90 H460 N2

| Compound | IC50 (NCI-H460 cells [1]; [9]) [µM] | IC50 (NCI-H460 cells [1]; [10]) [µM] | IC50 (NCI-H460 cells [1]; [11]) [µM] | IC50 (NCI-H460 cells [1]; [12]) [µM] | IC50 (NCI-H460 cells [1]; [13]) [µM] | IC50 (NCI-H460 cells [1]; [14]) [µM] | Metabolic stability (MLM) (% at 30 min) [2] [%] | Plasma stability (% at 30 min) [3] [%] | IC50 (NCI-H460 cells [4]; [15]) [µM] | IC50 (NCI-H460 cells [4]; [16]) [µM] | IC50 (H460 cell line; [17]) [µM] | IC50 (H460 cell line; [18]) [µM] | HCR P (H460 cell line) | IC90 [5] [µM] | IC90 [6, 19] [µM] | IC50 (NCI-H460 cells [1]; [20]) [µM] | IC50 (NCI-H460 cells [1]; [21]) [µM] | IC90 (NCI-H460 cells [7]; [22]) [µM] | IC90 (NCI-H460 cells [7]; [23]) [µM] | IC90 (NCI-H460 cells [7]; [24]) [µM] | also measured |
| --- | --- | --- | --- | --- | --- | --- | --- | --- | --- | --- | --- | --- | --- | --- | --- | --- | --- | --- | --- | --- | --- |
| O=[N+]([O-])c1ccc(COP(=O)(NCCCl)NCCCl)s1 [Compound 26] | 3 | 6 | 5 | 10 | 40 | 0.3 | 56 | 85 | 35 | 0.1 | 0.1 | 35 | 350 | – | – | – | – | – | – | – | – |
| Nc1n[n+]([O-])c2ccccc2[n+]1[O-] [Tirapazamine, reference compound] | – | – | – | – | – | – | – | – | – | – | – | – | – | > 200 | 14 | – | – | – | – | – | IC90 ([6]; read-out: IC90 H460 Monolayer 0.6% O2): 27 µM; IC90 ([6]; read-out: IC90 H460 Monolayer Air): > 100 µM |
| Cn1c(COP2(=O)N(CCBr)CCCN2CCBr)cnc1[N+](=O)[O-] [Compound 35] | – | 5 | 40 | – | – | – | 56 | 85 | 50 | 0.075 | 0.075 | 50 | 625 | 22 | – | 50 | 0.05 | 3 | 30 | 0.5 | IC50 (NCI-H460 cells [1]; Homo sapiens, NCI-H460, read-out: IC50 in H460 cells, 0.3% O2): 6 µM; IC50 (NCI-H460 cells [4]; read-out: IC50 H460 Air, air, 2 h exposure): 55 µM; IC50 (HT29 cells; read-out: IC50 HT29 Air): > 100 µM; IC50 (HT29 cells; read-out: IC50 HT29 Anoxia): 1.8 µM; IC50 (MES-SA cells; read-out: IC50 MES-SA Air): 100 µM; IC50 (MES-SA cells; read-out: IC50 MES-SA Anoxia): 1 µM |
| COC(=O)c1cc(C(C)OP(=O)(NCCBr)NCCBr)ccc1OCc1cnc([N+](=O)[O-])n1C (stereo not drawn) [Compound 70] | – | 30 | – | – | 65 | 2 | – | – | 65 | 2 | – | – | – | 25.5 | 1.25 | – | – | 8 | 20 | 2 | – |
| Cn1c(COP2(=O)N(CCCl)CCCN2CCCl)cnc1[N+](=O)[O-] [Compound 16] | 10 | 10 | – | 100 | – | – | 40 | – | > 100 | 1.6 | 1.6 | 100 | 60 | – | – | > 100 | 0.3 | – | – | – | IC90 (human H460 cells; NCI-H460, read-out: Hypoxia C (clonogenic IC90)): 0.2 µM; IC90 (human H460 cells; NCI-H460, read-out: Normoxia C (clonogenic IC90)): 35 µM; HCR C (human H460 cells; ratio of IC90 in normoxia and hypoxia): 175 |
| Cn1c(COP2(=O)N(CCBr)CCN2CCBr)cnc1[N+](=O)[O-] [Compound 108] | – | > 100 | – | – | > 100 | 1 | – | – | > 100 | 1.1 | – | – | – | – | – | – | – | – | – | – | Reduction Potentials, 100 mV/sec ([8]; scan rate 100 mV/sec): −614 mV; Reduction Potentials, 10,000 mV/sec ([8]; scan rate 10,000 mV/sec): −593 mV |
